Test results reported in US20110224210A1, “NOVEL BIS-AMIDES AS ANTI-MALARIAL AGENTS” (priority 2008, published 2011).

System: P. falciparum K1 (strain resistant to chloroquine and pyrimethamine), erythrocytic stages
Assay: Plasmodium falciparum in vitro assay, [3H] hypoxanthine incorporation
Assay type: cell-based
Conditions: Plasmodium falciparum, K1, P. falciparum strain K1; [3H] hypoxanthine incorporation; read-out: IC50 (nM) on K1
Method: In Vitro Antimalarial Activity: Plasmodium falciparum In Vitro Assay
In vitro activity against erythrocytic stages of P. falciparum is determined using a [^3H] hypoxanthine incorporation assay. One strain resistant to chloroquine and pyrimethamine (P. falciparum K1) is used in the assays, and all test compounds are compared for activity with the standard drugs chloroquine (sigma C6628) and artemisinin (sigma-36, 159-3). Compounds are diluted in DMSO to 1 mM and added to parasite cultures incubated in RPMI 1640 medium without hypoxanthine, supplemented with HEPES (5.94 g/L), NaHCO3 (2.1 g/L), neomycin (100 U/mL), Albumax (5 g/L) and washed human red cells at 2.5% haematocrit (0.3% parasitaemia). Seven serial doubling dilutions of each compound are prepared in 96-well microtitre plates and incubated in a humidifying atmosphere at 37° C.; 4% CO2, 3% O2, 93% N2.
After 48 h, 50 μl of [3H] hypoxanthine (0.5 μCi) is added to each well of a plate. The plates are incubated for a further 24 h under the same conditions. The plates are then harvested with a Betaplate cell harvester (Wallac) and washed with distilled water. The dried filters are inserted into a plastic foil with 10 mL of scintillation fluid, and counted in a Betaplate liquid scintillation counter. IC50 values are calculated from sigmoidal inhibition curves using Microsoft Excel.

Row | IC50 [nM] | SMILES
1 | 413 | CN(C)C1CCN(C(=O)C(Cc2cnn(C)c2)N(Cc2ccc(-c3ccccn3)cc2)C(=O)C=Cc2ccc(C(F)(F)F)cc2)CC1 (racemic) [Example 137]
2 | 340 | CN(C)C1CCN(C(=O)C(Cc2ccn(C)n2)N(Cc2ccc(-c3ccccn3)cc2)C(=O)C=Cc2ccc(C(F)(F)F)cc2)CC1 (racemic) [Example 138]
3 | 155 | CN(C)C1CCN(C(=O)C(Cc2cnn(C)c2)N(Cc2ccc(-c3ccncc3)cc2)C(=O)C=Cc2ccc(C(F)(F)F)cc2)CC1 (racemic) [Example 139]
4 | 191 | CN(C)C1CCN(C(=O)C(Cc2ccn(C)n2)N(Cc2ccc(-c3ccncc3)cc2)C(=O)C=Cc2ccc(C(F)(F)F)cc2)CC1 (racemic) [Example 140]
5 | 339 | CN(C)C1CCN(C(=O)C(Cc2ccnn2C)N(Cc2ccc(-c3ccncc3)cc2)C(=O)C=Cc2ccc(C(F)(F)F)cc2)CC1 (racemic) [Example 141]
6 | 460 | CN(C)C1CCN(C(=O)C(Cc2ccnn2C)N(Cc2ccc(-c3ccccn3)cc2)C(=O)C=Cc2ccc(C(F)(F)F)cc2)CC1 (racemic) [Example 142]
7 | 247 | COCCN(C)C(=O)C(Cc1cnn(C)c1)N(Cc1ccc(-c2ccccn2)cc1)C(=O)C=Cc1ccc(C(F)(F)F)cc1 (racemic) [Example 164]
8 | 76 | COCCN(C)C(=O)C(Cc1ccn(C)n1)N(Cc1ccc(-c2ccccn2)cc1)C(=O)C=Cc1ccc(C(F)(F)F)cc1 (racemic) [Example 165]
9 | 96 | COCCN(C)C(=O)C(Cc1cnn(C)c1)N(Cc1ccc(-c2ccncc2)cc1)C(=O)C=Cc1ccc(C(F)(F)F)cc1 (racemic) [Example 166]
10 | 41 | COCCN(C)C(=O)C(Cc1ccn(C)n1)N(Cc1ccc(-c2ccncc2)cc1)C(=O)C=Cc1ccc(C(F)(F)F)cc1 (racemic) [Example 167]
11 | 349 | COCCN(C)C(=O)C(Cc1ccnn1C)N(Cc1ccc(-c2ccncc2)cc1)C(=O)C=Cc1ccc(C(F)(F)F)cc1 (racemic) [Example 168]
12 | 312 | COCCN(C)C(=O)C(Cc1ccon1)N(Cc1ccc(-c2ccncc2)cc1)C(=O)C=Cc1ccc(C(F)(F)F)cc1 (racemic) [Example 169]
13 | 192 | COCCN(C)C(=O)C(Cc1ncccn1)N(Cc1ccc(-c2ccncc2)cc1)C(=O)C=Cc1ccc(C(F)(F)F)cc1 (racemic) [Example 170]
14 | 137 | COCCN(C)C(=O)C(CN1CCN(C)CC1)N(Cc1ccc(-c2ccccn2)cc1)C(=O)C=Cc1ccc(C(F)(F)F)cc1 (racemic) [Example 278]
15 | < 8 | COCCN(C)C(=O)C(CN1CCOCC1)N(Cc1ccc(-c2ccccn2)cc1)C(=O)C=Cc1ccc(C(F)(F)F)cc1 (racemic) [Example 279]
16 | 219 | COCCN(C)C(=O)C(CN1CCCC1)N(Cc1ccc(-c2ccccn2)cc1)C(=O)C=Cc1ccc(C(F)(F)F)cc1 (racemic) [Example 280]
17 | 448 | COCCN(C)C(=O)C(Cn1ccnc1)N(Cc1ccc(-c2ccccn2)cc1)C(=O)C=Cc1ccc(C(F)(F)F)cc1 (racemic) [Example 281]
18 | 35 | COCCN(C)C(=O)C(Cn1cccc1)N(Cc1ccc(-c2ccncc2)cc1)C(=O)C=Cc1ccc(C(F)(F)F)cc1 (racemic) [Example 282]

Row | IC50 [nM] | SMILES
19 | 324 | COCCN(C)C(=O)C(CN1C(=O)C(=O)c2ccccc21)N(Cc1ccc(-c2ccncc2)cc1)C(=O)C=Cc1ccc(C(F)(F)F)cc1 (racemic) [Example 283]
20 | 362 | COCCN(C)C(=O)C(CN1CCOC1=O)N(Cc1ccc(-c2ccncc2)cc1)C(=O)C=Cc1ccc(C(F)(F)F)cc1 (racemic) [Example 284]
21 | 3 | C[C@@H]1CC[C@H]2[C@@H](C)C(=O)O[C@@H]3O[C@@]4(C)CC[C@@H]1[C@]32OO4 [Artemisinin]
22 | 211 | Cc1nn(C)c(C)c1C=CC(=O)N(Cc1ccc(N2CCOCC2)cc1)[C@@H](Cc1ccccc1)C(=O)N1CCC(N(C)C)CC1 [Example 1, (S)-N-[1-Benzyl-2-(4-dimethylamino-piperidin-1-yl)-2-oxo-ethyl]-N-(4-morpholin-4-yl-benzyl)-3-(1,3,5-trimethyl-1H-pyrazol-4-yl)-acrylamide]
23 | 466 | Cc1nc(C)c(C=CC(=O)N(Cc2ccc(N3CCOCC3)cc2)[C@@H](Cc2ccccc2)C(=O)N2CCC(N(C)C)CC2)s1 [Example 2, (S)-N-[1-Benzyl-2-(4-dimethylamino-piperidin-1-yl)-2-oxo-ethyl]-3-(2,4-dimethyl-thiazol-5-yl)-N-(4-morpholin-4-yl-benzyl)-acrylamide]
24 | 436 | Cc1noc(C)c1C=CC(=O)N(Cc1ccc(N2CCOCC2)cc1)[C@@H](Cc1ccccc1)C(=O)N1CCC(N(C)C)CC1 [Example 3, (S)-N-[1-Benzyl-2-(4-dimethylamino-piperidin-1-yl)-2-oxo-ethyl]-3-(3,5-dimethyl-isoxazol-4-yl)-N-(4-morpholin-4-yl-benzyl)-acrylamide]
25 | 323 | CN(C)C1CCN(C(=O)[C@H](Cc2ccccc2)N(Cc2ccc(N3CCOCC3)cc2)C(=O)C=Cc2ccc(C(F)(F)F)cn2)CC1 [Example 4, (S)-N-[1-Benzyl-2-(4-dimethylamino-piperidin-1-yl)-2-oxo-ethyl]-N-(4-morpholin-4-yl-benzyl)-3-(5-trifluoromethyl-pyridin-2-yl)-acrylamide]
26 | 319 | COc1ccc(C=CC(=O)N(Cc2ccc(N3CCOCC3)cc2)[C@@H](Cc2ccccc2)C(=O)N2CCC(N(C)C)CC2)cn1 [Example 5, (S)-N-[1-Benzyl-2-(4-dimethylamino-piperidin-1-yl)-2-oxo-ethyl]-3-(6-methoxy-pyridin-3-yl)-N-(4-morpholin-4-yl-benzyl)-acrylamide]
27 | 54 | CN(C)C1CCN(C(=O)[C@H](Cc2ccccc2)N(Cc2ccc(-c3ccccn3)cc2)C(=O)C=Cc2ccc(C(F)(F)F)cc2)CC1 [Example 6, (S)-N-[1-Benzyl-2-(4-dimethylamino-piperidin-1-yl)-2-oxo-ethyl]-N-(4-pyridin-2-yl-benzyl)-3-(4-trifluoromethyl-phenyl)-acrylamide]
28 | 14 | CN(C)C1CCN(C(=O)[C@H](Cc2ccccc2)N(Cc2ccc(-c3ccccn3)cc2)C(=O)C=Cc2ccc(C(F)(F)F)nc2)CC1 [Example 7, (S)-N-[1-Benzyl-2-(4-dimethylamino-piperidin-1-yl)-2-oxo-ethyl]-N-(4-pyridin-2-yl-benzyl)-3-(6-trifluoromethyl-pyridin-3-yl)-acrylamide]
29 | 381 | Cc1cc(C=CC(=O)N(Cc2ccc(-c3ccccn3)cc2)[C@@H](Cc2ccccc2)C(=O)N2CCC(N(C)C)CC2)n(C)n1 [Example 8, (S)-N-[1-Benzyl-2-(4-dimethylamino-piperidin-1-yl)-2-oxo-ethyl]-3-(2,5-dimethyl-2H-pyrazol-3-yl)-N-(4-pyridin-2-yl-benzyl)-acrylamide]
30 | 69 | Cc1nn(C)c(C)c1C=CC(=O)N(Cc1ccc(-c2ccccn2)cc1)[C@@H](Cc1ccccc1)C(=O)N1CCC(N(C)C)CC1 [Example 9, (S)-N-[1-Benzyl-2-(4-dimethylamino-piperidin-1-yl)-2-oxo-ethyl]-N-(4-pyridin-2-yl-benzyl)-3-(1,3,5-trimethyl-1H-pyrazol-4-yl)-acrylamide]
31 | 176 | Cc1nc(C)c(C=CC(=O)N(Cc2ccc(-c3ccccn3)cc2)[C@@H](Cc2ccccc2)C(=O)N2CCC(N(C)C)CC2)s1 [Example 10, (S)-N-[1-Benzyl-2-(4-dimethylamino-piperidin-1-yl)-2-oxo-ethyl]-3-(2,4-dimethyl-thiazol-5-yl)-N-(4-pyridin-2-yl-benzyl)-acrylamide]
32 | 315 | Cc1nc(C=CC(=O)N(Cc2ccc(-c3ccccn3)cc2)[C@@H](Cc2ccccc2)C(=O)N2CCC(N(C)C)CC2)cs1 [Example 11, (S)-N-[1-Benzyl-2-(4-dimethylamino-piperidin-1-yl)-2-oxo-ethyl]-3-(2-methyl-thiazol-4-yl)-N-(4-pyridin-2-yl-benzyl)-acrylamide]
33 | 220 | Cc1noc(C)c1C=CC(=O)N(Cc1ccc(-c2ccccn2)cc1)[C@@H](Cc1ccccc1)C(=O)N1CCC(N(C)C)CC1 [Example 12, (S)-N-[1-Benzyl-2-(4-dimethylamino-piperidin-1-yl)-2-oxo-ethyl]-3-(3,5-dimethyl-isoxazol-4-yl)-N-(4-pyridin-2-yl-benzyl)-acrylamide]
34 | 355 | Cc1nc(C=CC(=O)N(Cc2ccc(-c3ccccn3)cc2)[C@@H](Cc2ccccc2)C(=O)N2CCC(N(C)C)CC2)c(C)o1 [Example 13, (S)-N-[1-Benzyl-2-(4-dimethylamino-piperidin-1-yl)-2-oxo-ethyl]-3-(2,5-dimethyl-oxazol-4-yl)-N-(4-pyridin-2-yl-benzyl)-acrylamide]
35 | 226 | CN(C)C1CCN(C(=O)[C@H](Cc2ccccc2)N(Cc2ccc(-c3ccccn3)cc2)C(=O)C=Cc2ccc(Cl)nc2)CC1 [Example 14, (S)-N-[1-Benzyl-2-(4-dimethylamino-piperidin-1-yl)-2-oxo-ethyl]-3-(6-chloro-pyridin-3-yl)-N-(4-pyridin-2-yl-benzyl)-acrylamide]

Row | SMILES | IC50 [nM]
36 | O=C(NC1CN2CCC1CC2)[C@H](Cc1ccccc1)N(Cc1ccc(-c2ccccn2)cc1)C(=O)C=Cc1ccc(C(F)(F)F)cc1 (mixture of isomers) [Example 152] | 242

Same assay, conditions: Plasmodium falciparum, K1, read-out: IC50 (nM) on K1

Row | SMILES | IC50 [nM]
37 | CCN(CC)CCCC(C)Nc1ccnc2cc(Cl)ccc12 (stereo not shown) [Chloroquine] | 194
